This is an account of results in publication PMC4399811 (Bioorganic & medicinal chemistry letters, 2015).

The target in one series is CYP2D6 (Homo sapiens, UniProt P10635). Description: CYP inhibition cocktail assay using HLM and known substrates.
The target of the next series is CYP3A4 (Homo sapiens, UniProt P08684). The description is as above.
In the next series the target is CYP2C9 (Homo sapiens, UniProt P11712). The description is as above.
The next series has as its target T1, CYP1A2 (Homo sapiens, UniProt P05177).
T1 sequence (P05177 1-516): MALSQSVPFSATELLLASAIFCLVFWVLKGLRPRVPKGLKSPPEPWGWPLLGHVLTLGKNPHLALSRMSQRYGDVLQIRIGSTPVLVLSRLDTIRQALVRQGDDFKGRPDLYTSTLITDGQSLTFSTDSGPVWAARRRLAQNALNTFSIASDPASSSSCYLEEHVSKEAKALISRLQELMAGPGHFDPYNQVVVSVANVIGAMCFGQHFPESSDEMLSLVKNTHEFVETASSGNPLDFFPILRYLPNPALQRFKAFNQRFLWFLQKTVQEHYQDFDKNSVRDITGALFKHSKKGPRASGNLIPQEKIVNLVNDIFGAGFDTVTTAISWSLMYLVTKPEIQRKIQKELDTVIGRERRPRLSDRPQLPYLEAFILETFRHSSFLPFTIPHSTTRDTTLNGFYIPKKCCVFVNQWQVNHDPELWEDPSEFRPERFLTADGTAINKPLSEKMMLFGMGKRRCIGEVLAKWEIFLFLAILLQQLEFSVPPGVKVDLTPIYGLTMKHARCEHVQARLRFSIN
Described as above.

In series [1] the target is T2, mGlu3 (Homo sapiens, UniProt Q14832). Kind of series: cell-based.
In series [2] the test system is other mGlu receptors (mGlu1–4,6–8, except mGlu3). Description: selectivity profiling against the other mGlu receptors. Type of series: cell-based. Conditions: read-out: other mGlu EC50; mGlu receptors other than mGlu5 and mGlu3.
In another series the test system is rats. Description: adverse effects in rats. Type of series: in vivo, rat.
Series [3] is described as follows: solubility in fasted simulated intestinal fluid. Conditions: fasted simulated intestinal fluid (FaSSIF), pH 7.2, fassif. The series is classed as physicochemical.
The nature of another series: in vivo PK study in rats. The settings on record: rat.
Series [4] deals with amphetamine-induced hyperlocomotion. Description: reversal of amphetamine-induced hyperlocomotion. The settings on record: rat.
For series [5], the target named is T2, mGlu3. Conditions: NAM.
The target of the next series is rat mGlu5 receptors (Rattus norvegicus, UniProt P31424). Kind of series: 'triple add' calcium mobilization assay, mGlu5 PAM/NAM/agonist modes. Type of series: cell-based. The settings on record: for fold increase in mGlu5 potency vs series 3 counterpart: dihydro analogue 4 vs corresponding analogue 3. For orientation: A change in cytosolic calcium serves as a functional read-out for many receptors and channels.

For a further series, the system named is dogs. Kind of series: adverse effects in in vivo PK studies in dogs. The settings on record: 0.5 mg/mL i.v. Details: species or system dog.

Values after ≈ are worked out from the molar mass of the structure shown.

Sequence of rat mGlu5 receptors (P31424 21-1203): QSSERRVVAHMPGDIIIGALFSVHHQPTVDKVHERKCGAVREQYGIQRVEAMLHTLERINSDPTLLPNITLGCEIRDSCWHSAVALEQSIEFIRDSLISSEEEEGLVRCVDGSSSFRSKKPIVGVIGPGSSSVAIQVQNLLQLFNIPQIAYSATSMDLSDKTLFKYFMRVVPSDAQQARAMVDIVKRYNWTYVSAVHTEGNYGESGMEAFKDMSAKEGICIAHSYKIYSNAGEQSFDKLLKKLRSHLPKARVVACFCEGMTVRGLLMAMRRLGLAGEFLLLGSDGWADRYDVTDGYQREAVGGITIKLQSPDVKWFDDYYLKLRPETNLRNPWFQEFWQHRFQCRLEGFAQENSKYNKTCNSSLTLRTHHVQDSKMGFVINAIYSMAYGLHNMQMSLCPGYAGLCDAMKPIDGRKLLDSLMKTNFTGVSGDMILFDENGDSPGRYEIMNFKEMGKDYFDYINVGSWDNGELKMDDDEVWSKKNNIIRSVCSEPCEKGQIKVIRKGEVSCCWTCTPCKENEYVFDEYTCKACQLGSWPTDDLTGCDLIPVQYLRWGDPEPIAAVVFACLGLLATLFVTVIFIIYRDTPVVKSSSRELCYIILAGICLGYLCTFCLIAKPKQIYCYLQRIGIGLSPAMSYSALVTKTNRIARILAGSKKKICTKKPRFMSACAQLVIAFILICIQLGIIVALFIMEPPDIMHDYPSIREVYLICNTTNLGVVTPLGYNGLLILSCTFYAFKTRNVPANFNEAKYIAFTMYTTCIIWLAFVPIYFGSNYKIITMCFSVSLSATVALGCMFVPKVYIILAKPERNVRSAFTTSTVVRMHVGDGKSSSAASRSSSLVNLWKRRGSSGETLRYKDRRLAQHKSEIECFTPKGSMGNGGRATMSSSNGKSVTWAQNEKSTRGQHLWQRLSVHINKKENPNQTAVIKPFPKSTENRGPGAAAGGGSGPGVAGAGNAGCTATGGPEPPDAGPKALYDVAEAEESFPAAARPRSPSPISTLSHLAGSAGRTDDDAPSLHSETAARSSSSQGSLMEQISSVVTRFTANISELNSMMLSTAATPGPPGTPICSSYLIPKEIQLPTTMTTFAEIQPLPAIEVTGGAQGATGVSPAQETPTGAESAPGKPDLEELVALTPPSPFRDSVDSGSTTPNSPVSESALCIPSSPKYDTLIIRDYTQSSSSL
T2 sequence (Q14832 23-879): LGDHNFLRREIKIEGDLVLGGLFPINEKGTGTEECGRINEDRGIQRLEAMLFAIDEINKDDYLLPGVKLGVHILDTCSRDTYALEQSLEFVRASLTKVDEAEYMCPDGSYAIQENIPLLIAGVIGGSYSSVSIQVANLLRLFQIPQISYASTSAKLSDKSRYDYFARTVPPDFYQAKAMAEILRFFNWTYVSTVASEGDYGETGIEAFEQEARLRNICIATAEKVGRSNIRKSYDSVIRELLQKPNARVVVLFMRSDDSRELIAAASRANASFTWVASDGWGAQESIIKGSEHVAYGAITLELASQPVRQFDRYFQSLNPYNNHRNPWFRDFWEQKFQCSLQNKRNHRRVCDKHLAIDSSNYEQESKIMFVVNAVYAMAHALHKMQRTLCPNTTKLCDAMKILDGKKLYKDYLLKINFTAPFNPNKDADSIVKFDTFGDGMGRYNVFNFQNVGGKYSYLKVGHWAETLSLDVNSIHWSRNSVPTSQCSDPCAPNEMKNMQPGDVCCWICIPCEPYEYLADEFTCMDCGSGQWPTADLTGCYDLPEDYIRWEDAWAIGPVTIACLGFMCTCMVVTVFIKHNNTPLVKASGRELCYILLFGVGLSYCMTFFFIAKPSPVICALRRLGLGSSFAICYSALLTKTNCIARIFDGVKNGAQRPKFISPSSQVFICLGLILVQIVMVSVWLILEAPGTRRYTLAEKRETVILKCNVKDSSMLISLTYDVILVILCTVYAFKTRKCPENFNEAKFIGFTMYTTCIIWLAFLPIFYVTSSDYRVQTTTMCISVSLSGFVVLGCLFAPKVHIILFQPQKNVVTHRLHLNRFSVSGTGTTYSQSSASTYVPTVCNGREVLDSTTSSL
Sequence of CYP2C9 (P11712 whole entry): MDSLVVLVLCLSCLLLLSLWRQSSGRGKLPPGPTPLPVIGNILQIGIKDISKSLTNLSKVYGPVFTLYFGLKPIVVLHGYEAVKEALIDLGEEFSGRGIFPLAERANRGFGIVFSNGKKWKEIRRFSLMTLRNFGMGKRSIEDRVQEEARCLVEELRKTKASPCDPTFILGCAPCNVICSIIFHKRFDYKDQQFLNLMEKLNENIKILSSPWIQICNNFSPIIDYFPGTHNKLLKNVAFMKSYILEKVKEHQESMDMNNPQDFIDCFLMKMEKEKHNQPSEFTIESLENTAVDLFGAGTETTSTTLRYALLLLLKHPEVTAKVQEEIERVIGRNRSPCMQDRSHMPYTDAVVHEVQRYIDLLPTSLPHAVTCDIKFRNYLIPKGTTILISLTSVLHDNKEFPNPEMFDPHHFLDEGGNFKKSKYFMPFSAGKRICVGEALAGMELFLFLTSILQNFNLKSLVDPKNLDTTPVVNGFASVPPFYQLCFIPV
Sequence of CYP3A4 (P08684 whole entry): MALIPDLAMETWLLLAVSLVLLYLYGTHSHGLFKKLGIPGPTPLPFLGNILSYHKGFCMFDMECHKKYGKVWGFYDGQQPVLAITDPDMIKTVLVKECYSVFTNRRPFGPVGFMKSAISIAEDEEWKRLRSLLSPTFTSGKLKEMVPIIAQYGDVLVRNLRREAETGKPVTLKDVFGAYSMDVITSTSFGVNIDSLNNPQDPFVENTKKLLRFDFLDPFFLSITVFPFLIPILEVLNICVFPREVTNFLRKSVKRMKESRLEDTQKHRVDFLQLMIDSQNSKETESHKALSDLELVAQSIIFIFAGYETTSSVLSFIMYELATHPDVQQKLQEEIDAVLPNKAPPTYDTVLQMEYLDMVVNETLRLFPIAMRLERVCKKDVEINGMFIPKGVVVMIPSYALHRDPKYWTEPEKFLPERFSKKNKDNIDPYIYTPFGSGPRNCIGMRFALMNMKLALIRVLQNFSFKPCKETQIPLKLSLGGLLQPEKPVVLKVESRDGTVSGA
Sequence of CYP2D6 (P10635 whole entry): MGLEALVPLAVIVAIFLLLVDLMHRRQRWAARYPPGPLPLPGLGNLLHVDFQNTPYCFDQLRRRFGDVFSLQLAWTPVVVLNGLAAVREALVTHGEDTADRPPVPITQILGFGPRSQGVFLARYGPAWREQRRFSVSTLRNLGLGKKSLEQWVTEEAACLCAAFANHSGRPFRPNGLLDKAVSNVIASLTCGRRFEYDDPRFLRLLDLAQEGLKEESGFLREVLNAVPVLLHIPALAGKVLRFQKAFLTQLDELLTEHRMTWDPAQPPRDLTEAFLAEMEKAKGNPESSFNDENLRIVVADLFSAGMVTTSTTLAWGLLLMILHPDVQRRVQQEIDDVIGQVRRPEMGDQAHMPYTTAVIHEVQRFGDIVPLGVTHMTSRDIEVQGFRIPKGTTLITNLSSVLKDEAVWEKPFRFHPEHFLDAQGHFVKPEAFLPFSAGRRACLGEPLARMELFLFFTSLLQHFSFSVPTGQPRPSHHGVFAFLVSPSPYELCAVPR

With `O=c1n(-c2ccc(F)cc2)ccc2nc(COc3ccccc3)cn12` [3e], the IC50 against CYP2D6 was greater than 20 µM; on CYP3A4, greater than 20 µM; at CYP2C9 it was greater than 20 µM; against CYP1A2, 9.3 µM. Further, the results for the concentration for a half-maximal effect (EC50) (on mGlu3 [1]; in [2]) were 0.63 µM and greater than 10 µM, respectively.
Consider `O=C1N(c2ccc(F)cc2)CCc2nc(COc3ccccc3)cn21` [4a], for which the “CNS-mediated side effects, modified Irwin neurological test battery” value in the series on rats (120 mg/kg) is given as “pro-convulsive behavior”. Besides, the “adverse effects in PK and pharmacological experiments” value in the series with rats (up to 100 mg/kg p.o.) is “no significant adverse effects”. In [3], this compound registered a solubility of 6 µg/mL (≈ 17.8 µM). This compound also registered a clearance in “in vivo PK study in rats” (in vivo, 1 mg/kg) of 23.3 mL/min/kg. Further, the “brain AUC” value in the series “in vivo PK study in rats” (0.5-7.0 h) is on record as 12.7 µM-h. Also, the “lowest active oral dose, reversal of AIH” value in series [4] stood at 3 mg/kg. At mGlu3 [5], the “mGlu3 % Glu Max” value turned out to be 3%. For the same compound, at rat mGlu5 receptors (up to the highest concentration tested of 30 µM), the mGlu5 agonistic activity entry is reported as “lack of mGlu5 agonistic activity”. For the same compound, the EC50 on mGlu3 [1] is 0.29 µM; in series [2], greater than 10 µM. Also, in the series on dogs, the “CNS-mediated side effects in PK studies” value is on record as “dizziness”.
Consider `O=C1N(c2cccc(F)c2)CCc2nc(COc3ccccc3)cn21` [4b], for which, on rat mGlu5 receptors, the “fold increase in mGlu5 potency vs series 3 counterpart” value is recorded as 1.8–2.4 fold.
Same read-out and setting: under `Cc1cc(N2CCc3nc(COc4ccccc4)cn3C2=O)ccc1F` [4c] stands 1.8–2.4 fold; under `O=C1N(c2ccc(F)cc2)CCc2nc(COc3cccc(F)c3)cn21` [4h], no more than 3.3 fold; under `O=C1N(c2ccc(F)cc2)CCc2nc(COc3ccc(F)cc3)cn21` [4i], no more than 3.3 fold.

The IC50 is the concentration needed to halve the response being measured. A higher IC50 goes with weaker potency in that assay. In general, EC50 refers to the concentration at which the effect is half-maximal. As a reminder, the solubility is the concentration that dissolves in the medium under given conditions. The low end stands for a poorly soluble substance, the high end for a readily soluble substance. Usually clearance stands for a measure of how efficiently the substance is removed, as volume per time. Low readings indicate a low capacity for elimination, high ones a high capacity for elimination.
